Assay results published in patent publication US10053431B2, “Tetrahydro-benzodiazepinones” (priority 2013, dated 2018).
Counter-ions that a name gives are not always drawn.

Assays:
BIR3 domain of XIAP = BIR3 domain of XIAP (Homo sapiens (Human), UniProt P98170); test: TR-FRET assay for BIR3 (inhibition of binding of XIAP BIR3 domain to SMAC-derived Peptide A); conditions: 6x His-tagged BIR3 domain (aa 241-356 of XIAP) 10 nM, Peptide A 20 nM, TR-FRET
BIR2 domain of XIAP = BIR2 domain of XIAP (Homo sapiens (Human), UniProt P98170, C202A/C213G); test: TR-FRET assay for BIR2 (inhibition of binding of XIAP BIR2 domain to SMAC-derived Peptide A); conditions: 6x His-tagged BIR2 domain (aa 124-240 of XIAP) 10 nM, Peptide A 20 nM, TR-FRET; read-out: IC50 BIR2
Sequence of BIR2 domain of XIAP (P98170 124-240 with tags or gaps C202A/C213G limits assumed): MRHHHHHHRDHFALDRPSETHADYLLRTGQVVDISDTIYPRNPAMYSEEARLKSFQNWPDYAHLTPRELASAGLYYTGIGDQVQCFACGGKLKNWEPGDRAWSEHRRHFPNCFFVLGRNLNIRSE

Sequence of BIR3 domain of XIAP (P98170 241-356 with tags or gaps limits assumed): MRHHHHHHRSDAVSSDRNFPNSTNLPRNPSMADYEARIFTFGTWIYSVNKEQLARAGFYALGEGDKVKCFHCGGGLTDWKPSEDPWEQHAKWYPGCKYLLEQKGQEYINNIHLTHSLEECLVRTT

Work on `CN[C@@H](C)C(=O)N[C@H]1CN(C(=O)COCCOC)c2ccccc2N(Cc2c(C)ccc3ccccc23)C1=O` [Example 10, (S)—N—[(S)-5-[2-(2-methoxy-ethoxy)-acetyl]-1-(2-methyl-naphthalen-1-ylmethyl)-2-oxo-2,3,4,5-tetrahydro-1H-benzo[b][1,4]diazepin-3-yl]-2-methylamino-propionamide hydrochloride] yielded an IC50 (BIR3 domain of XIAP) greater than 54800 nM and an IC50 (BIR2 domain of XIAP) of 364 nM.

`CN[C@@H](C)C(=O)N[C@H]1CN(S(C)(=O)=O)c2ccccc2N(Cc2c(C)ccc3ccccc23)C1=O` [Example 19, (S)—N—[(S)-5-methanesulfonyl-1-(2-methyl-naphthalen-1-ylmethyl)-2-oxo-2,3,4,5-tetrahydro-1H-benzo[b][1,4]diazepin-3-yl]-2-methylamino-propionamide hydrochloride] showed an IC50 (BIR3 domain of XIAP) greater than 54800 nM and an IC50 (BIR2 domain of XIAP) of 620 nM.

`CN[C@@H](C)C(=O)N[C@H]1CN(C(=O)c2ccc(C(C)=O)cc2)c2ccccc2N(Cc2c(OC)ccc3ccccc23)C1=O` [Example 69g] gave an IC50 (BIR3 domain of XIAP) of 42500 nM and an IC50 (BIR2 domain of XIAP) of 11 nM.

In the case of `CN[C@@H](C)C(=O)N[C@H]1CN2CCNC(=O)c3ccc4c(c(OC)ccc4c3)CN(C1=O)c1ccccc12` [Example 59, Cyclic-5-[(S)-5-(2-Amino-ethyl)-3-((S)-2-methylamino-propionylamino)-2-oxo-2,3,4,5-tetrahydro-benzo[b][1,4]diazepin-1-ylmethyl]-6-methoxy-naphthalene-2-carboxylic amide hydrochloride], the IC50 (BIR3 domain of XIAP) is reported as 31400 nM and the IC50 (BIR2 domain of XIAP) is reported as 3780 nM.

Molecule `CN[C@@H](C)C(=O)N[C@H]1CN(C(=O)c2ccc(C)cc2)c2ccccc2N(Cc2c(C)ccc3ccccc23)C1=O` [Example 96k] has an IC50 (BIR3 domain of XIAP) of 32200 nM and an IC50 (BIR2 domain of XIAP) of 38 nM.

Work on `CCN[C@@H](C)C(=O)N[C@H]1CN(C(=O)CS(C)(=O)=O)c2ccccc2N(Cc2c(OC)ccc3cc(Br)ccc23)C1=O` [Example 149, (S)-N-((S)-1-((6-bromo-2-methoxynaphthalen-1-yl)methyl)-5-(2-(methylsulfonyl)acetyl)-2-oxo-2,3,4,5-tetrahydro-1H-benzo[b][1,4]diazepin-3-yl)-2-(ethylamino)propanamide] yielded an IC50 (BIR3 domain of XIAP) greater than 54800 nM and an IC50 (BIR2 domain of XIAP) of 183 nM.

`CN[C@@H](C)C(=O)N[C@H]1CN(C(=O)CCCCC(=O)OC)c2ccccc2N(Cc2c(C)ccc3ccccc23)C1=O` [Example 13e] showed an IC50 (BIR3 domain of XIAP) greater than 54800 nM and an IC50 (BIR2 domain of XIAP) of 308 nM.

For `CN[C@@H](C)C(=O)N[C@H]1CN(C(=O)c2ccc(C#N)cc2)c2ccccc2N(Cc2c(C)ccc3ccccc23)C1=O` [Example 96d], the IC50 (BIR3 domain of XIAP) was greater than 54800 nM and the IC50 (BIR2 domain of XIAP) was 46 nM.

In the case of `CN[C@@H](C)C(=O)N[C@H]1CN(S(=O)(=O)CS(C)(=O)=O)c2ccccc2N(Cc2c(C)ccc3ccccc23)C1=O` [Example 18, (S)—N—[(S)-5-Methanesulfonylmethanesulfonyl-1-(2-methyl-naphthalen-1-ylmethyl)-2-oxo-2,3,4,5-tetrahydro-1H-benzo[b][1,4]diazepin-3-yl]-2-methylamino-propionamide trifluoroacetate], the IC50 (BIR3 domain of XIAP) is reported as greater than 54800 nM and the IC50 (BIR2 domain of XIAP) is reported as 590 nM.

Molecule `CN[C@@H](C)C(=O)N[C@H]1CN(C(=O)CS(C)(=O)=O)c2ccccc2N(Cc2c(OC)ccc3ccccc23)C1=O` [Example 82, (S)—N—((S)-1-((2-Methoxynaphthalen-1-yl)methyl)-5-(2-(methylsulfonyl)acetyl)-2-oxo-2,3,4,5-tetrahydro-1H-benzo[b][1,4]diazepin-3-yl)-2-(methylamino)propanamide hydrochloride] has an IC50 (BIR3 domain of XIAP) greater than 54800 nM and an IC50 (BIR2 domain of XIAP) of 29 nM.

For `CN[C@@H](C)C(=O)N[C@H]1CN(C(=O)c2ccc(N)cc2)c2ccccc2N(Cc2noc3ccccc23)C1=O` [Example 71, (S)—N—((S)-5-(4-Aminobenzoyl)-1-(benzo[d]isoxazol-3-ylmethyl)-2-oxo-2,3,4,5-tetrahydro-1H-benzo[b][1,4]diazepin-3-yl)-2-(methylamino)propanamide hydrochloride], the IC50 (BIR3 domain of XIAP) was greater than 54800 nM and the IC50 (BIR2 domain of XIAP) was 64 nM.

`CN[C@@H](C)C(=O)N[C@H]1CN(C(=O)Cc2nnn[nH]2)c2ccccc2N(Cc2c(C)ccc3ccccc23)C1=O` [Example 96b] showed an IC50 (BIR3 domain of XIAP) of 38800 nM and an IC50 (BIR2 domain of XIAP) of 71 nM.

`CN[C@@H](C)C(=O)N[C@H]1CN2C(=O)CCNC(=O)c3ccc4c(c(OC)ccc4c3)CN(C1=O)c1ccccc12` [Example 63, Cyclic-5-[(S)-5-(3-Amino-propionyl)-3-((S)-2-methylamino-propionylamino)-2-oxo-2,3,4,5-tetrahydro-benzo[b][1,4]diazepin-1-ylmethyl]-6-methoxy-naphthalene-2-carboxylic amide hydrochloride] showed an IC50 (BIR3 domain of XIAP) of 43000 nM and an IC50 (BIR2 domain of XIAP) of 19 nM.

With `CN[C@@H](C)C(=O)N[C@H]1CN(C(=O)c2ccc(F)cc2)c2cc(C#N)ccc2N(Cc2c(OC(F)F)ccc3ccccc23)C1=O` [Example 151, (S)-N-((S)-7-cyano-1-((2-(difluoromethoxy)naphthalen-1-yl)methyl)-5-(4-fluorobenzoyl)-2-oxo-2,3,4,5-tetrahydro-1H-benzo[b][1,4]diazepin-3-yl)-2-(methylamino)propanamide hydrochloride] the IC50 (BIR3 domain of XIAP) was 49000 nM and the IC50 (BIR2 domain of XIAP) was 28.4 nM.

Molecule `CN[C@@H](C)C(=O)N[C@H]1CN(C(=O)CCCN)c2ccccc2N(Cc2c(OC)ccc3cc(C(=O)OC)ccc23)C1=O` [Example 49, 5-[(S)-5-(4-Amino-butyryl)-3-((S)-2-methylamino-propionylamino)-2-oxo-2,3,4,5-tetrahydro-benzo[b][1,4]diazepin-1-ylmethyl]-6-methoxy-naphthalene-2-carboxylic acid methyl ester hydrochloride] has an IC50 (BIR3 domain of XIAP) greater than 54800 nM and an IC50 (BIR2 domain of XIAP) of 127 nM.

`CN[C@@H](C)C(=O)N[C@H]1CN(C(=O)C2CCOCC2)c2cc(C#N)ccc2N(Cc2c(C3CC3)cnc3ccccc23)C1=O` [Example 180, (S)-N-((S)-7-cyano-1-((3-cyclopropylquinolin-4-yl)methyl)-2-oxo-5-(telrahydro-2H-pyran-4-carbonyl)-2,3,4,5-tetrahydro-1H-benzo[b][1,4]diazepin-3-yl)-2-(methylamino)propanamide] was tested, and the IC50 (BIR3 domain of XIAP) was 16500 nM and the IC50 (BIR2 domain of XIAP) was 18 nM.

`CN[C@@H](C)C(=O)N[C@H]1CN(C(=O)c2ccc(OC)cc2)c2ccccc2N(Cc2c(C)ccc3ccccc23)C1=O` [Example 96l] gave an IC50 (BIR3 domain of XIAP) greater than 54800 nM and an IC50 (BIR2 domain of XIAP) of 37 nM.

For `CN[C@@H](C)C(=O)N[C@H]1CN2C(=O)CCCNC(=O)c3ccc4c(c(OC)ccc4c3)CN(C1=O)c1ccccc12` [Example 51, Cyclic-5-[(S)-5-(4-Amino-butyryl)-3-((S)-2-methylamino-propionylamino)-2-oxo-2,3,4,5-tetrahydro-benzo[b][1,4]diazepin-1-ylmethyl]-6-methoxy-naphthalene-2-carboxylic amide hydrochloride], the IC50 (BIR3 domain of XIAP) was 42800 nM and the IC50 (BIR2 domain of XIAP) was 58 nM.

Work on `CN[C@@H](C)C(=O)N[C@H]1CN(C(=O)c2ccc(C(C)=O)cc2)c2ccccc2N(CC(=O)Nc2nc3ccccc3s2)C1=O` [Example 109, (2S)-N-[(3S)-1-(4-acetylbenzoyl)-5-[2-(1,3-benzothiazol-2-ylamino)-2-oxoethyl]-4-oxo-2,3-dihydro-1,5-benzodiazepin-3-yl]-2-(methylamino)propanamide;2,2,2-trifluoroacctic acid] yielded an IC50 (BIR3 domain of XIAP) of 42300 nM and an IC50 (BIR2 domain of XIAP) of 121 nM.

Work on `CN[C@@H](C)C(=O)N[C@H]1CN(S(=O)(=O)c2ccccc2)c2ccccc2N(Cc2c(C)ccc3ccccc23)C1=O` [Example 98e] yielded an IC50 (BIR3 domain of XIAP) of 31600 nM and an IC50 (BIR2 domain of XIAP) of 133 nM.

In the case of `CN[C@@H](C)C(=O)N[C@H]1CN(C(=O)c2ccc(C(C)=O)cc2)c2ccccc2N(Cc2c(OC)ccc3cc(C(=O)O)ccc23)C1=O` [Example 44, 5-[[(3S)-1-(4-acetylbenzoyl)-3-[[(2S)-2-(methylamino)propanoyl]amino]-4-oxo-2,3-dihydro-1,5-benzodiazepin-5-yl]methyl]-6-methoxy-naphthalene-2-carboxylic acid; hydrochloride], the IC50 (BIR3 domain of XIAP) is reported as 17400 nM and the IC50 (BIR2 domain of XIAP) is reported as 16 nM.

`CN[C@@H](C)C(=O)N[C@H]1CN(C(=O)c2ccncc2)c2ccccc2N(Cc2c(C)ccc3ccccc23)C1=O` [Example 9, (S)-2-Methylamino-N—[(S)-1-(2-methyl-naphthalen-1-naphthalen-1 ylmethyl)-2-oxo-5-(pyridine-4-carbonyl)-2,3,4,5-tetrahydro-1H-benzo[b][1,4]diazepin-3-yl]-propionamide hydrochloride] gave an IC50 (BIR3 domain of XIAP) greater than 54800 nM and an IC50 (BIR2 domain of XIAP) of 520 nM.

`CN[C@@H](C)C(=O)N[C@H]1CN(C(=O)CC2CCCCC2)c2ccccc2N(Cc2c(C)ccc3ccccc23)C1=O` [Example 96e] was tested, and the IC50 (BIR3 domain of XIAP) was greater than 54800 nM and the IC50 (BIR2 domain of XIAP) was 685 nM.

Work on `CN[C@@H](C)C(=O)N[C@H]1CN(C(=O)CS(C)(=O)=O)c2ccc(C#N)cc2N(Cc2c(OC)ccc3ccccc23)C1=O` [Example 171, (S)-N-((S)-8-cyano-1-((2-methoxynaphthalen-1-yl)methyl)-5-(2-(methylsulfonyl)acetyl)-2-oxo-2,3,4,5-tetrahydro-1H-benzo[b][1,4]diazepin-3-yl)-2-(methylamino)propanamide hydrochloride] yielded an IC50 (BIR3 domain of XIAP) of 41200 nM and an IC50 (BIR2 domain of XIAP) of 30.3 nM.

Work on `CN[C@@H](C)C(=O)N[C@H]1CN(S(=O)(=O)NC)c2ccccc2N(Cc2c(C)ccc3ccccc23)C1=O` [Example 98b] yielded an IC50 (BIR3 domain of XIAP) greater than 54800 nM and an IC50 (BIR2 domain of XIAP) of 188 nM.

Molecule `CC[C@H](NC)C(=O)NC1C(=O)N(C)c2ccccc2N(Cc2c(C)ccc3ccccc23)C1=O` (stereo partly drawn) [Example 114, (2S)-N-(1-methyl-5-((2-methylnaphthalen-1-yl)methyl)-2,4-dioxo-2,3,4,5-tetrahydro-1H-benzo[b][1,4]diazepin-3-yl)-2-(methylamino)butanamide] has an IC50 (BIR3 domain of XIAP) greater than 54800 nM and an IC50 (BIR2 domain of XIAP) of 530 nM.

`CN[C@@H](C)C(=O)N[C@H]1CNc2cc(C#N)ccc2N(Cc2nn(-c3ccccc3C#N)c3ccccc23)C1=O` [Example 168, (S)-N-((S)-7-cyano-1-((1-(2-cyanophenyl)-1H-indazol-3-yl)methyl)-2-oxo-2,3,4,5-tetrahydro-1H-benzo[b][1,4]diazepin-3-yl)-2-(methylamino)propanamide dihydrochloride] showed an IC50 (BIR3 domain of XIAP) greater than 54800 nM and an IC50 (BIR2 domain of XIAP) of 95.7 nM.

In the case of `CN[C@@H](C)C(=O)N[C@H]1CN(C(=O)c2ccc(S(C)(=O)=O)cc2)c2ccccc2N(Cc2c(C)ccc3ccccc23)C1=O` [Example 13c], the IC50 (BIR3 domain of XIAP) is reported as greater than 54800 nM and the IC50 (BIR2 domain of XIAP) is reported as 119 nM.
